Active and inactive are the calls of the source. No stated cut-off is given here; in the data, actives have a measured IC50 and inactives only a lower limit.
target: Envelope glycoprotein gp160 (Human immunodeficiency virus 1, UniProt Q6QLK5); assay: cell-free HIV fusion peptide-binding blockers – biochemical, uHTS, fluorescence dequenching, […] (AID 1986)
Sequence (Q6QLK5 whole entry, the tested form may be a part): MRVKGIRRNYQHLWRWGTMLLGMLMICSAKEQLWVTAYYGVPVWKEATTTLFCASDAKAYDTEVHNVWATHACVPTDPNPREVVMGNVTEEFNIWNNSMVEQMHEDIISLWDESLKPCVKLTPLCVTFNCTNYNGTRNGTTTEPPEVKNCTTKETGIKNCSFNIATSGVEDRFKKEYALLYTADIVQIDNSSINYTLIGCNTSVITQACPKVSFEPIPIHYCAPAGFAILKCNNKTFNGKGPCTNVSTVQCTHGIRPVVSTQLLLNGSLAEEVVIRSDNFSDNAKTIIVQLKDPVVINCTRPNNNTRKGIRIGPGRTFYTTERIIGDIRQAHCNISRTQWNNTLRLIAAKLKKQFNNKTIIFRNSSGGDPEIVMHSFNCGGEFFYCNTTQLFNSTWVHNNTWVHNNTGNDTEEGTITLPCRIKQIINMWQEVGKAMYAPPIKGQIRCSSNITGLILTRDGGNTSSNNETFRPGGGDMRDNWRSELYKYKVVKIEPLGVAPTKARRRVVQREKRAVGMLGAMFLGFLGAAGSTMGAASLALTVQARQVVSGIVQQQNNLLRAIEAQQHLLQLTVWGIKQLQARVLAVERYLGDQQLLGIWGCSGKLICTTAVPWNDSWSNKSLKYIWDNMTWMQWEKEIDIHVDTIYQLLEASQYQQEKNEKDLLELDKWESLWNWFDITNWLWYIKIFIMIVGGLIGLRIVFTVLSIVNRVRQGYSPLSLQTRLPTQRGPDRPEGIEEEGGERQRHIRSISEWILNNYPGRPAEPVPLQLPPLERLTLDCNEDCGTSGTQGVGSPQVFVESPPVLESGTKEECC

SMILES	IC50
O=C(O)c1cc(NN=C2c3ccccc3-c3ccccc32)ccc1Cl	23.7 µM (active)
CCOc1cc(/C=C2\SC(=S)N(C(C(=O)O)c3ccccc3)C2=O)ccc1O (stereo not drawn)	22.6 µM (active)
Cc1ccc(-c2cc(C(=O)Nc3ccc(S(=O)(=O)Nc4onc(C)c4C)cc3)c3ccccc3n2)cc1	18.1 µM (active)
